Experimental data taken from paper PMC9671377, “Label-free affinity screening, design and synthesis of inhibitors targeting the Mycobacterium tuberculosis L-alanine dehydrogenase” (PLOS ONE, 2022).
Values after ≈ are worked out from the molar mass of the structure shown. Values joined by “and” are separate entries in the source; they are usually repeats but may differ in a detail not shown here. Equal values may be shown once. Read-outs that look alike come from different tables or passages of the source.

Assays:
[1] = target: Mtb L-alanine dehydrogenase (AlaDH) (Mycobacterium tuberculosis, UniProt P9WQB1); format: biochemical
[2] = target: T1, Mtb L-alanine dehydrogenase (AlaDH, Rv2780) (Mycobacterium tuberculosis, UniProt P9WQB1); format: binding; details: for Integrated band volume / Ratio against N6-methyl ado / Eluted AlaDH compared to N6-methyl ado / Eluted protein amount relative to N6-methyl ado: SDS gel densitometry; for Integrated band volume / Ratio against N6-methyl ado: Fig 3a
[3] = target: T2, human malate DH 2 (Homo sapiens, UniProt P40926); assay: Activity assay against human malate DH 2; format: biochemical
T2 sequence (P40926 25-338): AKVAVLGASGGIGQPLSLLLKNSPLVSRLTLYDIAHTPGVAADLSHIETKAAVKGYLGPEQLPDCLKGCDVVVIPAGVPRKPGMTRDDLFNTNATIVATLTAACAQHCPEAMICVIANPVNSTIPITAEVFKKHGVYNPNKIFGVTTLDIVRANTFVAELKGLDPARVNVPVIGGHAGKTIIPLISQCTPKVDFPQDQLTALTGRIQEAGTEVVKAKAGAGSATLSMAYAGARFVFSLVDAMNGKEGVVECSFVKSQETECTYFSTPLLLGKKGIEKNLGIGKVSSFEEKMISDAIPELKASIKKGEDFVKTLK

[4] = system: Mtb aldehyde dehydrogenase (Rv0223c, AldDH); format: biochemical, Mycobacterium tuberculosis; details: 1 mM inhibitor, 1 mM NAD, 10 mM propionaldehyde
[5] = target: Mycobacterium tuberculosis L-alanine dehydrogenase (Mycobacterium tuberculosis, UniProt P9WQB1); assay: biochemical; format: biochemical; details: for Ki: competitive inhibition mode vs NAD, value (S.D.) in table
[6] = target: T1, Mtb L-alanine dehydrogenase (AlaDH, Rv2780); details: cited from earlier work
[7] = system: Mtb in murine primary bone marrow-derived macrophages (BMDMs); format: cell-based, Mycobacterium tuberculosis H37Rv; details: 500 μM, 3 days
[8] = system: Mycobacterium tuberculosis H37Rv cells; assay: Minimum inhibitory concentration assay (microfluidic agarose channel chip); format: cell-based
[9] = compound at 1 mM, SDS-PAGE of eluate

Chain of Mtb L-alanine dehydrogenase (AlaDH) (P9WQB1 whole entry, looked up): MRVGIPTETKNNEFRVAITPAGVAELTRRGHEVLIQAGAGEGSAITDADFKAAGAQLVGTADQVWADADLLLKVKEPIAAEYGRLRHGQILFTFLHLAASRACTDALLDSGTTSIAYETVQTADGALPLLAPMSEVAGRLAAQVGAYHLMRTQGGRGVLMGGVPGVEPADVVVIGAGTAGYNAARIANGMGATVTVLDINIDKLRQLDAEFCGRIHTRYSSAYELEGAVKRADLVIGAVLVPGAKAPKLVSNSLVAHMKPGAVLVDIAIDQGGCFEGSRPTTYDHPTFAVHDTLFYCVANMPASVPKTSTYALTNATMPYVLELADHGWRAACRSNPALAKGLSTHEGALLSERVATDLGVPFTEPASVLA
Chain of Mycobacterium tuberculosis L-alanine dehydrogenase (P9WQB1 whole entry, looked up): as above
T1 sequence (P9WQB1 whole entry, looked up): as above

## Cc1nc(N)c2ncn([C@@H]3O[C@H](CO)[C@@H](O)[C@H]3O)c2n1 [D28, C2-methyl adenosine]
[1]
  Initial velocity (vi) of the AlaDH reaction with compound: 1.769 x10^-3 [NADH]OD340/min
  Reduction of initial velocity (vi) of the AlaDH reaction: 4%
[2]
  Elution of AlaDH from F3GA dye resin (displacement of the dye) in DLAC: did not show displacement

## CC(C)CNc1ncnc2c1ncn2[C@@H]1O[C@H](CO)[C@@H](O)[C@H]1O [N6-isobutyl adenosine]
[1]; […], without compound vi 1.922 x10^-3
  vi of wild-type AlaDH after adding compound: 0.734 x10^-3 [NADH]OD340/min
[3]
  Inhibition of human malate DH 2 activity: no noticeable inhibition
[4]
  Inhibition of AldDH activity: no inhibition
[2]
  Integrated band volume: 143,252
  Ratio against N6-methyl ado: 3.45
[2]; listed as N6-isobutyl ado
  Eluted AlaDH compared to N6-methyl ado: 3.45 fold and ~ 3.5 fold
[5]
  Ki: 80 µM and 79 µM

## CCNc1ncnc2c1ncn2[C@@H]1O[C@H](CO)[C@@H](O)[C@H]1O [N6-ethyl adenosine]
other
  melting point: 197.1 to 198.4 °C
[2]
  Eluted AlaDH compared to N6-methyl ado: 2.12 fold
  Integrated band volume: 87,674
  Ratio against N6-methyl ado: 2.12
[5]
  Ki: 520 µM and 521 µM

## CC(=O)Nc1ncnc2c1ncn2[C@@H]1O[C@H](CO)[C@@H](O)[C@H]1O [N6-acetyl ado]
[2]
  Eluted protein amount relative to N6-methyl ado: 12%
  Integrated band volume: 5,015
  Ratio against N6-methyl ado: 0.12
[5]
  Inhibitory effect on AlaDH activity: did not reveal any inhibitory effect

## CC(C)C(=O)Nc1ncnc2c1ncn2[C@@H]1O[C@H](CO)[C@@H](O)[C@H]1O [N6-isobutyoyl adenosine]
[2]
  Eluted protein amount relative to N6-methyl ado: 70%
  Integrated band volume: 29,087
  Ratio against N6-methyl ado: 0.70
[5]
  Ki: 3710 µM

## Nc1ncnc2c1ncn2[C@@H]1O[C@H](COP(=O)(O)OP(=O)(O)OP(=O)(O)O)[C@@H](O)[C@H]1O [ATP, reference compound]
[6]
  Binding in DLAC assay (previous data): bound strongly
[2]; [9]
  Elution of AlaDH from F3GA dye resin (displacement of the dye) in DLAC: eluted the target AlaDH enzyme

## NC(=O)C1=CN([C@@H]2O[C@H](COP(=O)(O)OP(=O)(O)OC[C@H]3O[C@@H](n4cnc5c(N)ncnc54)[C@H](O)[C@@H]3O)[C@@H](O)[C@H]2O)C=CC1 [NADH]
[6]
  Binding in DLAC assay (previous data): bound strongly

## CCCNc1ncnc2c1ncn2[C@@H]1O[C@H](CO)[C@@H](O)[C@H]1O [N6-propyl adenosine]
other
  melting point: 162 to 165.4 °C
[2]
  Eluted AlaDH compared to N6-methyl ado: 3.05 fold
  Integrated band volume: 126,378
  Ratio against N6-methyl ado: 3.05
[5]
  Ki: 110 µM and 113 µM

## CNc1ncnc2c1ncn2[C@@H]1O[C@H](CO)[C@@H](O)[C@H]1O [D30, N6-methyl adenosine]
[7]
  Intracellular growth of Mtb in BMDMs: significantly decreased
[1]; 1 mM inhibitor, 1 mM NAD, 17 mM L-alanine
  Reduction of initial velocity (vi) of the AlaDH reaction: 33%
[1]; no inhibition vi 1.842x10^-3, 1 mM inhibitor
  Initial velocity (vi) of the AlaDH reaction with compound: 1.231x10^-3 [NADH]OD340/min
[3]
  Inhibition of human malate DH 2 activity: no noticeable inhibition
[8]
  MIC: ~10 µg/mL (≈ 35.6 µM)
[4]
  Inhibition of AldDH activity: none
[2]
  Integrated band volume: 41,418
  Ratio against N6-methyl ado: 1
[2]; [9]
  Elution of AlaDH from F3GA dye resin (displacement of the dye) in DLAC: displaced the F3GA dye from AlaDH
[5]
  Ki: 860 µM and 861 µM
